Assay results reported in patent US20210330611A1, “THERAPY FOR NEUROLOGICAL DISEASES/DISORDERS” (priority 2020, published 2021).
pIC50: −log10 of the molar value. Structures can show the parent of a compound that is named as a salt. Where two headings read alike, the source gives them in different places.

Legend:
[1] = test system: fibrin-induced microglia activation; assay: Image-based assay of fibrin-induced microglia activation (HTS and dose response); type: cell-based, rat; settings: for inhibition at 10 µM: Rattus norvegicus, Microglia, read-out: Fibrin % inhibition
[2] = test system: LPS-induced microglia activation; assay: Image-based assay of LPS-induced microglia activation (HTS and dose response); type: cell-based, rat
[3] = test system: fibrin- and LPS-induced microglia activation; assay: cells; type: cell-based, rat
primary rat microglia [4] = test system: primary rat microglia;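 as to Fibrin % cell toxicity: share of dead cells sized under 150 µm2 at 10 µM in fibrin-stimulated microglia HTS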
primary rat microglia [5] = test system: primary rat microglia; remark: listed apart in the source;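 as to Fibrin % cell toxicity: share of dead cells sized under 150 µm2 at 10 µM in fibrin-stimulated microglia HTS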
[6] = primary microglia HTS, fibrin stimulation, compounds at 10 μM
[7] = Rattus norvegicus, Microglia, primary microglia HTS, LPS stimulation, compounds at 10 μM; read-out: LPS % inhibition
[8] = classification by fibrin and LPS inhibition, HTS at 10 μM
[9] = Rattus norvegicus, Microglia, read-out: LPS % inhibition
[10] = primary microglia HTS, fibrin stimulation, cell size >800 μm2 as marker of activation
[11] = classification by fibrin and LPS inhibition in HTS
[12] = primary microglia HTS, 10 μM, fibrin-stimulated, cell size >800 μm^2 as marker of activation
[13] = Rattus norvegicus, Microglia, primary microglia HTS, 10 μM, LPS-stimulated, cell size >800 μm^2 as marker of activation; read-out: LPS % inhibition
[14] = HTS of 1907 compounds, quadrant by fibrin and LPS inhibition
[15] = quadrant by fibrin and LPS inhibition, HTS at 10 μM
[16] = primary HTS, 10 μM, fibrin-stimulated primary microglia
[17] = Rattus norvegicus, Microglia, primary HTS, 10 μM, LPS-stimulated primary microglia; read-out: LPS % inhibition
[18] = primary microglia HTS, fibrin stimulation, increased cell size (>800 μm^2) as marker of activation
[19] = Rattus norvegicus, Microglia, 48 h, primary microglia HTS, LPS stimulation; increased cell size (>800 μm^2) as marker of activation; read-out: LPS % inhibition
[20] = quadrant by fibrin and LPS inhibition in HTS of 1907 compounds

CC12CCC(CC1)C(C)(C)O2 [Eucalyptol]
inhibition at 10 µM [1, 6]: -15% | inhibition at 10 µM [2, 7]: 9% | Quadrant (FIG. 5b) [3, 8]: Q4 | Fibrin % cell toxicity (primary rat microglia [4]; rat): 0% | LPS % cell toxicity (primary rat microglia [5]; rat): 0%

CN(C)CCOc1ccc(/C(=C(/CCCl)c2ccccc2)c2ccccc2)cc1 [Toremifene]
inhibition at 10 µM [1]: 14% | inhibition at 10 µM [2, 9]: 19% | Quadrant (FIG. 5b) [3]: Q4 | Fibrin % cell toxicity (primary rat microglia [4]; rat): 1% | LPS % cell toxicity (primary rat microglia [5]; rat): 0%

CNC(=O)c1cc(Oc2ccc(NC(=O)Nc3ccc(Cl)c(C(F)(F)F)c3)cc2)ccn1 [Sorafenib]
inhibition at 10 µM [1, 10]: -67% | inhibition at 10 µM ([2]; Rattus norvegicus, Microglia, 48 h; read-out: LPS % inhibition): 35% | Quadrant (FIG. 5b) [3, 11]: Q4 | Fibrin % cell toxicity (primary rat microglia [4]; rat): 1% | LPS % cell toxicity (primary rat microglia [5]; rat): 1%

Hydrocortisone hemisuccinate [reference compound]
Fibrin % inhibition [1]: 100% | fib specificity [1]: 8.4 | fib_HS [1]: −0.39 | pIC50 ([1]; read-out: Fibrin IC50): 7.70 | IC50 ([1]; read-out: Fibrin IC50 (uM) (Suppl. Table 7)): 0.02 µM | pIC50 ([1]; read-out: fib_IC50): 8.40 | LPS % inhibition [2]: 64% | LPS specificity [2]: 0.1 | LPS_HS [2]: −1.10 | pIC50 ([2]; read-out: LPS IC50): 5.15 | IC50 ([2]; read-out: LPS IC50 (uM) (Suppl. Table 7)): 7 µM | pIC50 ([2]; read-out: LPS_IC50): 7.44 | Activity [3]: fib/LPS | Cherry-picked Hit (Suppl. Table 7) [3]: HIT (key: HIT: Hits were defined as molecules that exhibited greater than 50% inhibition of either fibrin or LPS activation) | Hit [3]: HIT (key: HIT: Hits were defined as molecules that exhibited greater than 50% inhibition of either fibrin or LPS activation) | Quadrant (FIG. 5b) [3]: Q2 | Fibrin % cell toxicity (primary rat microglia [4]): 1% | pIC50 (primary rat microglia [4]): < 4.70 | pIC50 (primary rat microglia [5]): < 4.70 | LPS % cell toxicity (primary rat microglia [5]): 1%

CCOC(=O)C1=C[C@]2(CC)CCCN3CCc4c(n1c1ccccc41)[C@@H]32 [Vinpocetine]
inhibition at 10 µM [1, 12]: -19% | inhibition at 10 µM [2, 13]: 0% | Quadrant (FIG. 5b) [3, 14]: Q4 | Fibrin % cell toxicity (primary rat microglia [4]; rat): 0% | LPS % cell toxicity (primary rat microglia [5]; rat): 0%

CN1C(C(=O)Nc2ccccn2)=C(O)c2sccc2S1(=O)=O [Tenoxicam]
inhibition at 10 µM [1]: 11% | inhibition at 10 µM [2, 9]: 15% | Quadrant (FIG. 5b) [3]: Q4 | Fibrin % cell toxicity (primary rat microglia [4]; rat): 1% | LPS % cell toxicity (primary rat microglia [5]; rat): 0%

CC(=O)OCC[N+](C)(C)C [Acetylcholine]
inhibition at 10 µM [1, 6]: -39% | inhibition at 10 µM [2, 7]: 9% | Quadrant (FIG. 5b) [3, 15]: Q4 | Fibrin % cell toxicity (primary rat microglia [4]; rat): 0% | LPS % cell toxicity (primary rat microglia [5]; rat): 0%

O=CCc1ccc(-c2ccccc2)cc1
Fibrin % inhibition ([1]; 10 µM): −26% | LPS % inhibition ([2]; 10 µM): 7% | Quadrant (FIG. 5b) [3]: Q4 | Fibrin % cell toxicity (primary rat microglia [4]): 0% | LPS % cell toxicity (primary rat microglia [5]): 0%

Cc1ccc(C(C)C)c(O)c1 [Thymol]
inhibition at 10 µM [1, 12]: 15% | inhibition at 10 µM [2, 13]: 20% | Quadrant (FIG. 5b) [3, 14]: Q4 | Fibrin % cell toxicity (primary rat microglia [4]; rat): 1% | LPS % cell toxicity (primary rat microglia [5]; rat): 0%

O=c1oc2c(O)c(O)cc3c(=O)oc4c(O)c(O)cc1c4c23 [Ellagic Acid]
inhibition at 10 µM [1, 6]: -5% | inhibition at 10 µM [2, 7]: 24% | Quadrant (FIG. 5b) [3, 8]: Q4 | Fibrin % cell toxicity (primary rat microglia [4]; rat): 1% | LPS % cell toxicity (primary rat microglia [5]; rat): 0%

CCOc1ccc(NC(=O)CC(C)O)cc1 (stereo not drawn) [Bucetin]
inhibition at 10 µM [1, 16]: -25% | inhibition at 10 µM [2, 17]: 12% | Quadrant (FIG. 5b) ([3]; primary HTS, 10 μM): Q4 | Fibrin % cell toxicity (primary rat microglia [4]; rat): 0% | LPS % cell toxicity (primary rat microglia [5]; rat): 0%

Cc1nc2n(c(=O)c1CCN1CCC(c3noc4cc(F)ccc34)CC1)CCCC2O (stereo not drawn) [Paliperidone]
inhibition at 10 µM [1, 18]: -26% | inhibition at 10 µM [2, 19]: 9% | Quadrant (FIG. 5b) [3, 20]: Q4 | Fibrin % cell toxicity (primary rat microglia [4]; rat): 1% | LPS % cell toxicity (primary rat microglia [5]; rat): 0%

C=CCc1ccccc1OCC(O)CNC(C)C (stereo not drawn) [Alprenolol Hydrochloride, Alprenolol]
Fibrin % inhibition [1, 6]: 1% | LPS % inhibition ([2]; primary microglia HTS, LPS stimulation, compounds at 10 μM): 13% | Quadrant (FIG. 5b) [3, 15]: Q4 | Fibrin % cell toxicity (primary rat microglia [4]): 0% | LPS % cell toxicity (primary rat microglia [5]): 1%

CC1CCC(C(C)C)C(O)C1 (stereo not drawn) [Menthol]
inhibition at 10 µM [1]: -20% | inhibition at 10 µM ([2]; Rattus norvegicus, Microglia, 48 h, read-out: LPS % inhibition): 0% | Quadrant (FIG. 5b) [3]: Q4 | Fibrin % cell toxicity (primary rat microglia [4]; rat): 1% | LPS % cell toxicity (primary rat microglia [5]; rat): 0%

N[C@@H]1C[C@H]1c1ccccc1 (racemic) [Tranylcypromine]
Fibrin % inhibition ([1]; 10 µM): 5% | LPS % inhibition ([2]; 10 µM): −5% | Quadrant (FIG. 5b) [3]: Q4 | Fibrin % cell toxicity (primary rat microglia [4]): 1% | LPS % cell toxicity (primary rat microglia [5]): 0%

CN1[C@@H]2CC[C@H]1C[C@@H](OC(c1ccccc1)c1ccccc1)C2 [Benztropine]
inhibition at 10 µM [1]: -7% | inhibition at 10 µM [2, 9]: 30% | Quadrant (FIG. 5b) [3]: Q4 | Fibrin % cell toxicity (primary rat microglia [4]; rat): 1% | LPS % cell toxicity (primary rat microglia [5]; rat): 0%

CCN(CC)CCCC(C)Nc1c2ccc(Cl)cc2nc2ccc(OC)cc12 (stereo not drawn) [Quinacrine]
inhibition at 10 µM [1, 18]: 24% | inhibition at 10 µM [2, 19]: 118% | Quadrant (FIG. 5b) [3, 20]: Q1 | Fibrin % cell toxicity (primary rat microglia [4]; rat): 1% | LPS % cell toxicity (primary rat microglia [5]; rat): 65%

CC(=O)OC1CC2CCC1(C)C2(C)C (stereo not drawn) [Bornyl Acetate]
inhibition at 10 µM [1, 16]: -38% | inhibition at 10 µM [2, 17]: 2% | Quadrant (FIG. 5b) ([3]; primary HTS, 10 μM): Q4 | Fibrin % cell toxicity (primary rat microglia [4]; rat): 0% | LPS % cell toxicity (primary rat microglia [5]; rat): 0%

N[C@@H](Cc1c[nH]c2ccccc12)C(=O)O [Tryptophan]
inhibition at 10 µM [1, 12]: -6% | inhibition at 10 µM [2, 13]: 16% | Quadrant (FIG. 5b) [3, 14]: Q4 | Fibrin % cell toxicity (primary rat microglia [4]; rat): 1% | LPS % cell toxicity (primary rat microglia [5]; rat): 0%

CC1=CC(=O)NS(=O)(=O)O1 [Acesulfame Potassium]
inhibition at 10 µM [1]: -3% | inhibition at 10 µM [2, 9]: 16% | Quadrant (FIG. 5b) [3]: Q4 | Fibrin % cell toxicity (primary rat microglia [4]; rat): 0% | LPS % cell toxicity (primary rat microglia [5]; rat): 0%

CCCN1CCCC[C@H]1C(=O)Nc1c(C)cccc1C [Ropivacaine, Ropivacaine Hydrochloride]
Fibrin % inhibition [1, 10]: 18% | LPS % inhibition [2]: 5% | Quadrant (FIG. 5b) [3, 11]: Q4 | Fibrin % cell toxicity (primary rat microglia [4]): 1% | LPS % cell toxicity (primary rat microglia [5]): 0%
